Measured values as given in ChEMBL document CHEMBL3272223, “Folate analogues altered in the C9-N10 bridge region. 10-Oxafolic acid and 10-oxaaminopterin” (J Med Chem, 1976).
pIC50: −log10 of the molar value. One block for each molecule: values may come before it. Active and inactive are the calls of the source. No cut-off for these calls is given here.

Experiments:
[1] = molecular target: Dihydrofolate reductase (Lactobacillus casei) (UniProt P00381); test: Inhibition of DCM-resistant Lactobacillus casei DHFR at 0.13 mM; settings: Lacticaseibacillus casei
Dihydrofolate reductase (Lactobacillus casei), sequence (P00381 whole entry): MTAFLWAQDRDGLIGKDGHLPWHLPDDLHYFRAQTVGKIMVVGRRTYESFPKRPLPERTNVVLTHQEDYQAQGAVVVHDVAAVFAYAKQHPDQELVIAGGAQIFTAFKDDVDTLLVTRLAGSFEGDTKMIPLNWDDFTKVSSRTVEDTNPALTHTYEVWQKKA

Enterococcus faecium [2] = test: Growth inhibition of Streptococcus faecium ATCC 8043 at 50 ng/ml by turbidimetric method; type: functional; settings: read-out: GI
Dihydrofolate reductase = Dihydrofolate reductase (Lactobacillus casei, UniProt P00381); test: Inhibition of DCM-resistant Lactobacillus casei DHFR; parameters: species or system Lacticaseibacillus casei; settings: read-out: I50
Dihydrofolate reductase, sequence (P00381 whole entry): as above

Enterococcus faecium [3] = test: Growth inhibition of Streptococcus faecium ATCC 8043 at 5 ng/ml by turbidimetric method; type: functional; settings: read-out: GI
[4] = molecular target: Dihydrofolate reductase (Lactobacillus casei) (UniProt P00381); test: Activity at DCM-resistant Lactobacillus casei DHFR relative to 7,8-dihydrofolic acid; settings: Lacticaseibacillus casei
[5] = molecular target: Dihydrofolate reductase (Lactobacillus casei) (UniProt P00381); test: Activity at DCM-resistant Lactobacillus casei DHFR; settings: Lacticaseibacillus casei

inhibition [1]: inactive
Compound: Nc1nc(=O)c2nc(COc3ccc(C(=O)N[C@@H](CCC(=O)O)C(=O)O)cc3)cnc2[nH]1
inhibition of growth at 0.05 µg/mL (Enterococcus faecium [2]): 50%

pIC50 (Dihydrofolate reductase): 8.35
Compound: Nc1nc(N)c2nc(COc3ccc(C(=O)N[C@@H](CCC(=O)O)C(=O)O)cc3)cnc2n1
inhibition of growth at 0.005 µg/mL (Enterococcus faecium [3]): 50%

Activity [4]: 28%
Compound: Nc1nc(=O)c2c([nH]1)NCC(CSc1ccc(C(=O)N[C@@H](CCC(=O)O)C(=O)O)cc1)=N2

inhibition [1]: inactive | Activity [5]: inactive
Compound: Nc1nc(=O)c2c([nH]1)NCC(COc1ccc(C(=O)N[C@@H](CCC(=O)O)C(=O)O)cc1)=N2
